Data as given in PMC10648852, “Molecular drivers of resistance to sulbactam-durlobactam in contemporary clinical isolates of Acinetobacter baumannii” (Antimicrobial Agents and Chemotherapy, 2023).
Like-named read-outs stand apart in the source and are kept apart here.

Key:
Assay in all cases: microbe, parasite or virus in culture
[1] = system: A. baumannii clinical isolates; assay type: cell-based; conditions: Acinetobacter baumannii
Method: (§1) The following report describes the genomic analysis of these isolates for likely resistance mechanisms. Biochemical analysis of purified PBP3 and phenotypic analyses of both clinical and isogenic strains were also conducted to determine the relative impact of key resistance determinants to SUL-DUR antibacterial activity.
(§2) Antimicrobial susceptibility testing was performed using broth microdilution following standardized methods established by the Clinical Laboratory Standards Institute (CLSI) ([35], [36]). […] MIC values were interpreted using CLSI breakpoints for all antimicrobial agents except those for which CLSI breakpoints are not available ([35]). SUL-DUR was tested as twofold dilutions of sulbactam in combination with a fixed concentration of 4 µg/mL durlobactam ([35]).

[2] = system: A. nosocomialis clinical isolate; assay type: cell-based; conditions: Acinetobacter nosocomialis, isolate ARC7023 (IHMA 2118812), France, BSI, 2019, read-out: MIC
Method: as §1, §2

[3] = system: A. pittii clinical isolates; assay type: cell-based; conditions: Acinetobacter pittii
Method: as §1, §2

[4] = system: ABC clinical isolates with SUL-DUR MIC > 4 µg/mL; assay type: cell-based, Acinetobacter baumannii-calcoaceticus complex; conditions: Acinetobacter
Method: as §1, §2

CN(C)c1cc(NC(=O)CNC(C)(C)C)c(O)c2c1C[C@H]1C[C@H]3[C@H](N(C)C)C(O)=C(C(N)=O)C(=O)[C@@]3(O)C(O)=C1C2=O [TIG, tigecycline]
0.25 µg/mL: MIC ([1]; isolate ARC6645 (IHMA 1435703), France, UTI, 2016, read-out: MIC) | MIC ([1]; isolate ARC6652 (IHMA 1465642), Belgium, RTI, 2016, read-out: MIC) | MIC ([1]; isolate ARC6813 (IHMA 1699543), Guatemala, UTI, 2017, read-out: MIC) | MIC ([1]; isolate ARC6818 (IHMA 1683261), Thailand, RTI, 2017, read-out: MIC) | MIC ([1]; isolate ARC6821 (IHMA 1699517), Guatemala, RTI, 2017, read-out: MIC) | MIC ([1]; isolate ARC6822 (IHMA 1637626), Guatemala, RTI, 2017, read-out: MIC) | MIC [2] | MIC ([3]; isolate ARC6951 (IHMA 1776233), Philippines, RTI, 2018, read-out: MIC) | MIC ([3]; isolate ARC7087 (IHMA 2212062), Colombia, BSI, 2020, read-out: MIC)
2 µg/mL: MIC ([1]; isolate ARC6816 (IHMA 1699521), Guatemala, RTI, 2017, read-out: MIC) | MIC ([1]; isolate ARC6819 (IHMA 1683267), Thailand, RTI, 2017, read-out: MIC) | MIC ([1]; isolate ARC7011 (IHMA 2104553), Germany, RTI, 2019, read-out: MIC) | MIC ([1]; isolate ARC7022 (IHMA 2045319), Guatemala, IAI, 2019, read-out: MIC) | MIC ([1]; isolate ARC7024 (IHMA 2059448), Turkey, RTI, 2019, read-out: MIC) | MIC ([1]; isolate ARC7083 (IHMA 2163687), United States, RTI, 2020, read-out: MIC) | MIC ([1]; isolate ARC7084 (IHMA 2189596), Germany, RTI, 2020, read-out: MIC) | MIC ([1]; isolate ARC7086 (IHMA 2207563), Israel, RTI, 2020, read-out: MIC) | MIC ([1]; isolate ARC7088 (IHMA 2215554), Turkey, BSI, 2020, read-out: MIC) | MIC ([1]; isolate ARC7090 (IHMA 2244410), Poland, RTI, 2020, read-out: MIC) | MIC ([1]; isolate ARC7093 (IHMA 2258783), United States, RTI, 2020, read-out: MIC) | MIC ([1]; isolate ARC7156 (IHMA 2455450), Greece, RTI, 2021, read-out: MIC) | MIC ([1]; isolate ARC7160 (IHMA 2458626), Thailand, RTI, 2021, read-out: MIC) | MIC ([1]; isolate ARC7161 (IHMA 2429252), Ukraine, RTI, 2021, read-out: MIC) | MIC90 [4]
0.13 µg/mL: MIC ([4]; read-out: MIC Min)
1 µg/mL: MIC ([1]; isolate ARC6644 (IHMA 1420327), Mexico, UTI, 2016, read-out: MIC) | MIC ([1]; isolate ARC6646 (IHMA 1484127), United States, RTI, 2016, read-out: MIC) | MIC ([1]; isolate ARC6648 (IHMA 1407634), Spain, RTI, 2016, read-out: MIC) | MIC ([1]; isolate ARC6650 (IHMA 1457337), Argentina, RTI, 2016, read-out: MIC) | MIC ([1]; isolate ARC6653 (IHMA 1308777), Vietnam, RTI, 2016, read-out: MIC) | MIC ([1]; isolate ARC6799 (IHMA 1562935), Spain, UTI, 2017, read-out: MIC) | MIC ([1]; isolate ARC6800 (IHMA 1557526), Turkey, RTI, 2017, read-out: MIC) | MIC ([1]; isolate ARC6801 (IHMA 1662094), Thailand, RTI, 2017, read-out: MIC) | MIC ([1]; isolate ARC6802 (IHMA 1557073), Spain, UTI, 2017, read-out: MIC) | MIC ([1]; isolate ARC6803 (IHMA 1589408), Belgium, UTI, 2017, read-out: MIC) | MIC ([1]; isolate ARC6805 (IHMA 1558650), United States, RTI, 2017, read-out: MIC) | MIC ([1]; isolate ARC6808 (IHMA 1557168), Spain, RTI, 2017, read-out: MIC) | MIC ([1]; isolate ARC6810 (IHMA 1699548), Guatemala, RTI, 2017, read-out: MIC) | MIC ([1]; isolate ARC6814 (IHMA 1699512), Guatemala, RTI, 2017, read-out: MIC) | MIC ([1]; isolate ARC6823 (IHMA 1620872), Greece, SSSI, 2017, read-out: MIC) | MIC ([1]; isolate ARC6937 (IHMA 1562926), Spain, UTI, 2017, read-out: MIC) | MIC ([1]; isolate ARC7008 (IHMA 2009813), Thailand, BSI, 2019, read-out: MIC) | MIC ([1]; isolate ARC7009 (IHMA 2043611), United States, UTI, 2019, read-out: MIC) | MIC ([1]; isolate ARC7010 (IHMA 2043398), United States, RTI, 2019, read-out: MIC) | MIC ([1]; isolate ARC7012 (IHMA 2010001), Thailand, RTI, 2019, read-out: MIC) | MIC ([1]; isolate ARC7014 (IHMA 2045328), Guatemala, IAI, 2019, read-out: MIC) | MIC ([1]; isolate ARC7018 (IHMA 2045454), Guatemala, IAI, 2019, read-out: MIC) | MIC ([1]; isolate ARC7020 (IHMA 2045326), Guatemala, RTI, 2019, read-out: MIC) | MIC ([1]; isolate ARC7025 (IHMA 2002121), Spain, RTI, 2019, read-out: MIC) | MIC ([1]; isolate ARC7026 (IHMA 2104494), Guatemala, BSI, 2019, read-out: MIC) | MIC ([1]; isolate ARC7082 (IHMA 2160640), Belgium, BSI, 2020, read-out: MIC) | MIC ([1]; isolate ARC7089 (IHMA 2240345), Argentina, BSI, 2020, read-out: MIC) | MIC ([1]; isolate ARC7092 (IHMA 2258772), United States, BSI, 2020, read-out: MIC) | MIC ([1]; isolate ARC7094 (IHMA 2296423), Turkey, RTI, 2020, read-out: MIC) | MIC ([1]; isolate ARC7158 (IHMA 2523738), Italy, BSI, 2021, read-out: MIC) | MIC ([1]; isolate ARC7159 (IHMA 2456229), Malaysia, RTI, 2021, read-out: MIC) | MIC ([1]; isolate ARC7162 (IHMA 2411847), United States, BSI, 2021, read-out: MIC) | MIC ([1]; isolate ARC7163 (IHMA 2477704), United States, BSI, 2021, read-out: MIC) | MIC ([3]; isolate ARC6952 (IHMA 1899008), Romania, RTI, 2018, read-out: MIC) | MIC50 [4]
16 µg/mL: MIC ([1]; isolate ARC7019 (IHMA 2114463), Thailand, RTI, 2019, read-out: MIC) | MIC ([4]; read-out: MIC Max)
0.5 µg/mL: MIC ([1]; isolate ARC6809 (IHMA 1699528), Guatemala, RTI, 2017, read-out: MIC) | MIC ([1]; isolate ARC6812 (IHMA 1699530), Guatemala, RTI, 2017, read-out: MIC) | MIC ([1]; isolate ARC6815 (IHMA 1699513), Guatemala, RTI, 2017, read-out: MIC) | MIC ([1]; isolate ARC6817 (IHMA 1699523), Guatemala, RTI, 2017, read-out: MIC) | MIC ([1]; isolate ARC6820 (IHMA 1647876), Argentina, RTI, 2017, read-out: MIC) | MIC ([1]; isolate ARC6824 (IHMA 1625487), Argentina, BSI, 2017, read-out: MIC) | MIC ([1]; isolate ARC6950 (IHMA 1820064), Israel, RTI, 2018, read-out: MIC) | MIC ([1]; isolate ARC6953 (IHMA 1909827), Turkey, IAI, 2018, read-out: MIC) | MIC ([1]; isolate ARC6954 (IHMA 1838192), Guatemala, SSSI, 2018, read-out: MIC) | MIC ([1]; isolate ARC6955 (IHMA 1825425), United States, RTI, 2018, read-out: MIC) | MIC ([1]; isolate ARC7015 (IHMA 2045327), Guatemala, UTI, 2019, read-out: MIC) | MIC ([1]; isolate ARC7016 (IHMA 2148441), Brazil, BSI, 2019, read-out: MIC) | MIC ([1]; isolate ARC7017 (IHMA 2148446), Brazil, BSI, 2019, read-out: MIC) | MIC ([1]; isolate ARC7021 (IHMA 1966347), Guatemala, RTI, 2019, read-out: MIC) | MIC ([1]; isolate ARC7085 (IHMA 2205747), Guatemala, IAI, 2020, read-out: MIC) | MIC ([1]; isolate ARC7091 (IHMA 2244564), Australia, RTI, 2020, read-out: MIC) | MIC ([1]; isolate ARC7095 (IHMA 2320843), Turkey, BSI, 2020, read-out: MIC) | MIC ([3]; isolate ARC6949 (IHMA 1898982), Romania, RTI, 2018, read-out: MIC)
0.12 µg/mL: MIC ([1]; isolate ARC6647 (IHMA 1386786), Argentina, RTI, 2016, read-out: MIC) | MIC ([1]; isolate ARC7013 (IHMA 1962831), Argentina, RTI, 2019, read-out: MIC)
